Data: the supplement of paper PMC10307832

Columns and labels:
Experiment in all cases: relative viability (nuclei count vs DMSO), 5 days (fraction); higher = more cells survive
Elesclomol + Palbociclib = compound: CN(NC(=O)CC(=O)NN(C)C(=S)c1ccccc1)C(=S)c1ccccc1 [Elesclomol] + CC(=O)c1c(C)c2cnc(Nc3ccc(N4CCNCC4)cn3)nc2n(C2CCCC2)c1=O [Palbociclib] (partner 0.5 µM)
How it was run: (§1)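 Relative viability is defined as nuclei in treated wells over nuclei in vehicle wells. Duplicate plates were run and medians reported. Lung cancer cell lines in 1536-well plates were dosed by pin tool one day after seeding, with one drug or with a fixed anchor-drug dose plus five library-drug doses (not always all listed) in √10 steps, and nuclei were counted after 5 days.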

Elesclomol + Lapatinib = compound: CN(NC(=O)CC(=O)NN(C)C(=S)c1ccccc1)C(=S)c1ccccc1 [Elesclomol] + CS(=O)(=O)CCNCc1ccc(-c2ccc3ncnc(Nc4ccc(OCc5cccc(F)c5)c(Cl)c4)c3c2)o1 [Lapatinib] (partner 2 µM)
How it was run: as §1

Elesclomol + Phenformin = compound: CN(NC(=O)CC(=O)NN(C)C(=S)c1ccccc1)C(=S)c1ccccc1 [Elesclomol] + N=C(N)NC(=N)NCCc1ccccc1 [Phenformin] (partner 250 µM)
How it was run: as §1

Elesclomol + Pemetrexed = compound: CN(NC(=O)CC(=O)NN(C)C(=S)c1ccccc1)C(=S)c1ccccc1 [Elesclomol] + Nc1nc2[nH]cc(CCc3ccc(C(=O)N[C@@H](CCC(=O)O)C(=O)O)cc3)c2c(=O)[nH]1 [Pemetrexed] (partner 0.2 µM)
How it was run: as §1

Elesclomol + Olaparib = compound: CN(NC(=O)CC(=O)NN(C)C(=S)c1ccccc1)C(=S)c1ccccc1 [Elesclomol] + O=C(c1cc(Cc2n[nH]c(=O)c3ccccc23)ccc1F)N1CCN(C(=O)C2CC2)CC1 [Olaparib] (partner 8 µM)
How it was run: as §1

Cell Line | relative viability (Elesclomol + Palbociclib; first compound 0.003162 µM) | relative viability (Elesclomol + Palbociclib; first compound 0.01 µM) | relative viability (Elesclomol + Palbociclib; first compound 0.03162 µM) | relative viability (Elesclomol + Palbociclib; first compound 0.1 µM) | relative viability (Elesclomol + Lapatinib; first compound 0.003162 µM) | relative viability (Elesclomol + Lapatinib; first compound 0.01 µM) | relative viability (Elesclomol + Lapatinib; first compound 0.03162 µM) | relative viability (Elesclomol + Lapatinib; first compound 0.1 µM) | relative viability (Elesclomol + Phenformin; first compound 0.003162 µM) | relative viability (Elesclomol + Phenformin; first compound 0.01 µM) | relative viability (Elesclomol + Phenformin; first compound 0.03162 µM) | relative viability (Elesclomol + Phenformin; first compound 0.1 µM) | relative viability (Elesclomol + Pemetrexed; first compound 0.003162 µM) | relative viability (Elesclomol + Pemetrexed; first compound 0.01 µM) | relative viability (Elesclomol + Pemetrexed; first compound 0.03162 µM) | relative viability (Elesclomol + Pemetrexed; first compound 0.1 µM) | relative viability (Elesclomol + Olaparib; first compound 0.003162 µM) | relative viability (Elesclomol + Olaparib; first compound 0.01 µM) | relative viability (Elesclomol + Olaparib; first compound 0.03162 µM) | relative viability (Elesclomol + Olaparib; first compound 0.1 µM)
NCI-H2170 | 0.396 | 0.358 | 0.358 | 0.29 | 0.273 | 0.285 | 0.259 | 0.257 | 0.39 | 0.402 | 0.376 | 0.341 | 0.28 | 0.28 | 0.27 | 0.26 | 0.55 | 0.558 | 0.638 | 0.344
NCI-H2228 | 0.676 | 0.513 | 0.225 | 0.0449 | 0.953 | 0.66 | 0.33 | 0.103 | 0.294 | 0.188 | 0.159 | 0.0554 | 0.307 | 0.308 | 0.143 | 0.0377 | 0.537 | 0.365 | 0.195 | 0.0479
NCI-H2347 | 0.401 | 0.441 | 0.328 | 0.321 | 0.876 | 0.776 | 0.902 | 0.761 | 0.426 | 0.231 | 0.294 | 0.281 | 0.401 | 0.372 | 0.411 | 0.441 | 0.591 | 0.463 | 0.525 | 0.339
NCI-H2405 | 0.507 | 0.395 | 0.303 | 0.28 | 1.16 | 0.292 | 0.291 | 0.289 | 0.39 | 0.335 | 0.335 | 0.366 | 1.03 | 0.707 | 0.323 | 0.297 | 0.737 | 0.693 | 0.386 | 0.353
